Data taken from US11567011B2, “System and method for drug detection in exhaled breath” (Sensa Bues AB, priority 2009, dated 2023).

Experiments:
[1] = Example 2: methadone in exhaled breath collected on Empore C18 disc, UPLC-MS/MS; conditions: all 13 studied patients
[2] = Example 1: amphetamine and methamphetamine in expired air collected on SPE cartridge, SRM UPLC-MS/MS; conditions: all 12 studied patients

With `CCC(=O)C(CC(C)N(C)C)(c1ccccc1)c1ccccc1` (centres unmarked) [methadone] as the molecule, how does the “detection in the sampled exhaled breath” value [1] read?
The value was “detected”.

Which “detection in the expired air sample” value [2] does the source give for `CN[C@@H](C)Cc1ccccc1` [methamphetamine] here?
The value was “detected”.
